Measurements published in patent US7301033B2, “PPAR-activating compound” (Kowa Co., Ltd., priority 2005, dated 2007).

These compounds were tested against T1, human PPARα (Homo sapiens, UniProt Q07869) (assay: Gal4-human PPARα chimera luciferase transfection assay in COS cells). Conditions: compound added at 1 μM, luciferase activity with WY14643 10 μM given as 10.0, 16 hours.
T1 construct: 166th to 467th amino acids of human PPARα; expressed in transfected cells; host or cells: COS cells (African green monkey kidney)
T1 sequence (Q07869 166-467): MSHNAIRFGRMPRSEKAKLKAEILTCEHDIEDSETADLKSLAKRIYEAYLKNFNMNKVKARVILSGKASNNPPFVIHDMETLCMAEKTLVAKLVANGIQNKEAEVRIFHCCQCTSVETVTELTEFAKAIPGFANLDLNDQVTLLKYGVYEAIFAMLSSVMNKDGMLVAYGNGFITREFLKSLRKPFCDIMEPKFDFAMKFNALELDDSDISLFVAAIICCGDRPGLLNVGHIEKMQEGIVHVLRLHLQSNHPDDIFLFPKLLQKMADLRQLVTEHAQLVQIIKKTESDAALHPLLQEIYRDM
Type: cell-based
Protocol: (§1) The PPAR receptor-activating effect of the compound of the present invention represented by the formula (1) was measured by a method described below (Proc. Natl. Acad. Sci., 92, pp 7297-7301, 1995; Journal of Lipid Research, 40, pp 2099-2110, 1999; and Proc. Natl. Acad. Sci, 98, pp 5306-5311, 2001).
(§2) All the transfection assays were conducted using African green monkey kidney-derived cell line COS cells. The COS cells were cultured at 5% CO2 concentration using a DMEM medium containing 10% fetal bovine serum, glutamic acid, and an antibiotic as a culture solution.
(§3) Gal4-human PPARs chimeric constructs which were fused the DNA-binding region of yeast transcription factor Gal4 with the ligand-binding region of human PPARs were used as an expression vector. A chimera where 1st to 147th amino acids of the Gal4 transcription factor were fused with 166th to 467th amino acids of human PPARα, with 182nd to 505th amino acids of human PPARγ2, or with 137th to 441st amino acids of human PPARδ was used as the chimera for each isoform. A reporter vector used was firefly luciferase whose promoter region contains five Gal4 recognition sequences. The plasmids were transfected into the cells by a method using Lipofectamine. In addition, a β-galactosidase expression vector was used as an internal standard.
(§4) After the transfection into the cells, the medium was substituted with a DMEM medium (containing 0.2% serum) supplemented with the compound, in which the cells were then cultured for additional 16 hours. Thereafter, luciferase activity and β-galactosidase activity in the cell lysate were measured.
(§5) In the present experiment, dimethyl sulfoxide (DMSO) was used in the dissolution and dilution of the compound. When the cells were treated, the DMSO concentration in the DMEM medium (containing 0.2% serum) was adjusted to 0.1%.

Compound | hPPAR; Relative activity α
CCCCN(CCCCCSc1ccccc1C(=O)O)c1nc2ccccc2o1 [Example 71, 2-[5-[N-(Benzoxazol-2-yl)-N-n-butyl]aminopentylthio]benzoic acid] | 11.0
CC(C)N(CCCCCSc1ccccc1C(=O)O)c1nc2ccccc2o1 [Example 70, 2-[5-[N-(Benzoxazol-2-yl)-N-isopropyl]aminopentylthio]benzoic acid] | 12.4
O=C(O)c1cccc(OCCCCN(CCOc2ccc(Cl)cc2)c2nc3ccccc3o2)c1 [Example 45, 3-[4-[N-(Benzoxazol-2-yl)-N-2-(4-chloropheoxyl)ethyl]aminobutoxy]benzoic acid] | 12.3
CCCCCCCN(CCCCOc1cccc(C(=O)O)c1)c1nc2ccccc2o1 [Example 46, 3-[4-[N-(Benzoxazol-2-yl)-N-n-heptyl]aminobutoxy]benzoic acid] | 16.5
O=C(O)c1ccccc1SCCN(CCCc1ccccc1)c1nc2ccccc2o1 [Example 79, 2-[2-[N-(Benzoxazol-2-yl)-N-3-phenylpropyl]aminoethylthio]benzoic acid] | 13.3
CCCN(CCCCCSc1ccccc1C(=O)O)c1nc2ccccc2o1 [Example 103, 2-[5-[N-(Benzoxazol-2-yl)-N-n-propyl]aminopentylthio]benzoic acid] | 12.4
O=C(O)c1ccccc1SCCCCN(CCOc1ccccc1)c1nc2ccccc2s1 [Example 111, 2-[4-[N-(Benzothiazol-2-yl)-N-2-phenoxyethyl]aminobutylthio]benzoic acid] | 16.0
CCCCCCCCN(CCCCSc1ccccc1C(=O)O)c1nc2ccccc2o1 [Example 94, 2-[4-[N-(Benzoxazol-2-yl)-N-n-octyl]aminobutylthio]benzoic acid] | 12.0
CCCCCCCCN(CCCCCSc1ccccc1C(=O)O)c1nc2ccccc2o1 [Example 102, 2-[5-[N-(Benzoxazol-2-yl)-N-n-octyl]aminopentylthio]benzoic acid] | 20.3
CCCN(CCCCSc1ccccc1C(=O)O)c1nc2ccccc2s1 [Example 110, 2-[4-[N-(Benzothiazol-2-yl)-N-n-propyl]aminobutylthio]benzoic acid] | 11.0
CCCCCCCN(CCSc1ccccc1C(=O)O)c1nc2ccccc2o1 [Example 77, 2-[2-[N-(Benzoxazol-2-yl)-N-n-heptyl]aminoethylthio]benzoic acid] | 18.9

Same assay, conditions: positive compound at 10 μM, its luciferase activity given as 10.0, 16 hours

Compound | hPPAR; Relative activity α
Cc1cccc(Nc2cc(Cl)nc(SCC(=O)O)n2)c1C [WY14643, reference compound] | 10.0

The compounds below were run against T2, human PPARγ2 (Homo sapiens, UniProt P37231) (assay: Gal4-human PPARγ2 chimera luciferase transfection assay in COS cells). Conditions: compound added at 1 μM, luciferase activity with rosiglitazone 1 μM given as 10.0, 16 hours.
T2 construct: with 182nd to 505th amino acids of human PPARγ2; expressed in transfected cells; host or cells: COS cells (African green monkey kidney)
T2 sequence (P37231 182-505): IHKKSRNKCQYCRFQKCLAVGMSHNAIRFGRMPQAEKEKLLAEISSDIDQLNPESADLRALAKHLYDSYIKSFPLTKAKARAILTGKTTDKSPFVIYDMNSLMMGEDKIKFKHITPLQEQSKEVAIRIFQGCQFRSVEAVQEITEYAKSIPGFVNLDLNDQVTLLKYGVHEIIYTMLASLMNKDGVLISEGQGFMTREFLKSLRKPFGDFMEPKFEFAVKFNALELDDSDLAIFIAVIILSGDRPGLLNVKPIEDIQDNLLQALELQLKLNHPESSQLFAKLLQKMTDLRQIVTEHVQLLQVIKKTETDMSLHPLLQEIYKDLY
Type: cell-based
Protocol: as §1, §2, §3, §4, §5

Compound | hPPAR; Relative activity γ
CCCCN(CCCCCSc1ccccc1C(=O)O)c1nc2ccccc2o1 [Example 71, 2-[5-[N-(Benzoxazol-2-yl)-N-n-butyl]aminopentylthio]benzoic acid] | 2.0
CC(C)N(CCCCCSc1ccccc1C(=O)O)c1nc2ccccc2o1 [Example 70, 2-[5-[N-(Benzoxazol-2-yl)-N-isopropyl]aminopentylthio]benzoic acid] | 1.4
O=C(O)c1cccc(OCCCCN(CCOc2ccc(Cl)cc2)c2nc3ccccc3o2)c1 [Example 45, 3-[4-[N-(Benzoxazol-2-yl)-N-2-(4-chloropheoxyl)ethyl]aminobutoxy]benzoic acid] | 3.5
CCCCCCCN(CCCCOc1cccc(C(=O)O)c1)c1nc2ccccc2o1 [Example 46, 3-[4-[N-(Benzoxazol-2-yl)-N-n-heptyl]aminobutoxy]benzoic acid] | 1.9
O=C(O)c1ccccc1SCCN(CCCc1ccccc1)c1nc2ccccc2o1 [Example 79, 2-[2-[N-(Benzoxazol-2-yl)-N-3-phenylpropyl]aminoethylthio]benzoic acid] | 1.1
CCCN(CCCCCSc1ccccc1C(=O)O)c1nc2ccccc2o1 [Example 103, 2-[5-[N-(Benzoxazol-2-yl)-N-n-propyl]aminopentylthio]benzoic acid] | 2.0
O=C(O)c1ccccc1SCCCCN(CCOc1ccccc1)c1nc2ccccc2s1 [Example 111, 2-[4-[N-(Benzothiazol-2-yl)-N-2-phenoxyethyl]aminobutylthio]benzoic acid] | 4.6
CCCCCCCCN(CCCCSc1ccccc1C(=O)O)c1nc2ccccc2o1 [Example 94, 2-[4-[N-(Benzoxazol-2-yl)-N-n-octyl]aminobutylthio]benzoic acid] | 3.5
CCCCCCCCN(CCCCCSc1ccccc1C(=O)O)c1nc2ccccc2o1 [Example 102, 2-[5-[N-(Benzoxazol-2-yl)-N-n-octyl]aminopentylthio]benzoic acid] | 2.1
CCCN(CCCCSc1ccccc1C(=O)O)c1nc2ccccc2s1 [Example 110, 2-[4-[N-(Benzothiazol-2-yl)-N-n-propyl]aminobutylthio]benzoic acid] | 2.0
CCCCCCCN(CCSc1ccccc1C(=O)O)c1nc2ccccc2o1 [Example 77, 2-[2-[N-(Benzoxazol-2-yl)-N-n-heptyl]aminoethylthio]benzoic acid] | 2.0

Each compound was assayed against T3, human PPARδ (Homo sapiens, UniProt Q03181) (assay: Gal4-human PPARδ chimera luciferase transfection assay in COS cells). Conditions: compound added at 1 μM, luciferase activity with GW501516 1 μM given as 10.0, 16 hours.
T3 construct: with 137th to 441st amino acids of human PPARδ; expressed in transfected cells; host or cells: COS cells (African green monkey kidney)
T3 sequence (Q03181 137-441): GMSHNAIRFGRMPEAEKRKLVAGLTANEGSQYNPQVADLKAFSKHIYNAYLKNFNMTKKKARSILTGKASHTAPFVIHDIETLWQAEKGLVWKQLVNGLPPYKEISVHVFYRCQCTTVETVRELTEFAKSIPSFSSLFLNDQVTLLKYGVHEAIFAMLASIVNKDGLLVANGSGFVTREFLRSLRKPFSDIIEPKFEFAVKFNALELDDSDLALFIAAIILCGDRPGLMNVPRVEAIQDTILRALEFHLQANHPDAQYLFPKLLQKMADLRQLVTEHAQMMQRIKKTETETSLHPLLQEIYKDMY
Type: cell-based
Protocol: as §1, §2, §3, §4, §5

Compound | hPPAR; Relative activity δ
CCCCN(CCCCCSc1ccccc1C(=O)O)c1nc2ccccc2o1 [Example 71, 2-[5-[N-(Benzoxazol-2-yl)-N-n-butyl]aminopentylthio]benzoic acid] | 0.5
CC(C)N(CCCCCSc1ccccc1C(=O)O)c1nc2ccccc2o1 [Example 70, 2-[5-[N-(Benzoxazol-2-yl)-N-isopropyl]aminopentylthio]benzoic acid] | 0.2
O=C(O)c1cccc(OCCCCN(CCOc2ccc(Cl)cc2)c2nc3ccccc3o2)c1 [Example 45, 3-[4-[N-(Benzoxazol-2-yl)-N-2-(4-chloropheoxyl)ethyl]aminobutoxy]benzoic acid] | 0.6
CCCCCCCN(CCCCOc1cccc(C(=O)O)c1)c1nc2ccccc2o1 [Example 46, 3-[4-[N-(Benzoxazol-2-yl)-N-n-heptyl]aminobutoxy]benzoic acid] | 0.3
O=C(O)c1ccccc1SCCN(CCCc1ccccc1)c1nc2ccccc2o1 [Example 79, 2-[2-[N-(Benzoxazol-2-yl)-N-3-phenylpropyl]aminoethylthio]benzoic acid] | 0.2
CCCN(CCCCCSc1ccccc1C(=O)O)c1nc2ccccc2o1 [Example 103, 2-[5-[N-(Benzoxazol-2-yl)-N-n-propyl]aminopentylthio]benzoic acid] | 0.2
O=C(O)c1ccccc1SCCCCN(CCOc1ccccc1)c1nc2ccccc2s1 [Example 111, 2-[4-[N-(Benzothiazol-2-yl)-N-2-phenoxyethyl]aminobutylthio]benzoic acid] | 0.3
CCCCCCCCN(CCCCSc1ccccc1C(=O)O)c1nc2ccccc2o1 [Example 94, 2-[4-[N-(Benzoxazol-2-yl)-N-n-octyl]aminobutylthio]benzoic acid] | 1.4
CCCCCCCCN(CCCCCSc1ccccc1C(=O)O)c1nc2ccccc2o1 [Example 102, 2-[5-[N-(Benzoxazol-2-yl)-N-n-octyl]aminopentylthio]benzoic acid] | 0.9
CCCN(CCCCSc1ccccc1C(=O)O)c1nc2ccccc2s1 [Example 110, 2-[4-[N-(Benzothiazol-2-yl)-N-n-propyl]aminobutylthio]benzoic acid] | 0.2
CCCCCCCN(CCSc1ccccc1C(=O)O)c1nc2ccccc2o1 [Example 77, 2-[2-[N-(Benzoxazol-2-yl)-N-n-heptyl]aminoethylthio]benzoic acid] | 0.2
